Results on one compound are retold here after US6391896B1, “3-Tetrahydropyridin-4-yl indoles for treatment of psychotic disorders” (Duphar International Research BV, priority 1998, dated 2002).

SMILES strings stand for the structures.

In turn, `O=C1c2ccc(F)cc2C(=O)N1CCCCN1CC=C(c2c[nH]c3ccc(F)cc23)CC1` registered a melting point of 197 to 199 °C.

As a reminder, the melting point is the temperature, or range, at which the solid turns liquid.
